Bounds are passed on as bounds.

One test concerns the target T1, Purified sGC (Homo sapiens, UniProt Q02153).
T1 sequence (Q02153 1-619): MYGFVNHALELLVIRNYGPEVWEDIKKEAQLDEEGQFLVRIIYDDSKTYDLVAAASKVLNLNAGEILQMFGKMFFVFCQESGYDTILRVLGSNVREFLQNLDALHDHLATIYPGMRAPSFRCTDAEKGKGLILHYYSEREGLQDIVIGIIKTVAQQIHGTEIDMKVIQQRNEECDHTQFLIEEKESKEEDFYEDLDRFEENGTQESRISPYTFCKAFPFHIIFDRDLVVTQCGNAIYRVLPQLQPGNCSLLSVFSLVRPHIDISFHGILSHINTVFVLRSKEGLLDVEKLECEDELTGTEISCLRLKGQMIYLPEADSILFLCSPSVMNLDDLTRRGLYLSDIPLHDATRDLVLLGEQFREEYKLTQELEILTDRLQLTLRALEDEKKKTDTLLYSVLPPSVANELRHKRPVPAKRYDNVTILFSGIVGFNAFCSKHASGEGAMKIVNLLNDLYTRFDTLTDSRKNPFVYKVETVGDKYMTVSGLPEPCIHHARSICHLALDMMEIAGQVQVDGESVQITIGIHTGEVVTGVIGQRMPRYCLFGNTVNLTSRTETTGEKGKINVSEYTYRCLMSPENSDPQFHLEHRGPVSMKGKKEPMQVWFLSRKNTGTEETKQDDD
T1 sequence (Q02108 1-690 partner): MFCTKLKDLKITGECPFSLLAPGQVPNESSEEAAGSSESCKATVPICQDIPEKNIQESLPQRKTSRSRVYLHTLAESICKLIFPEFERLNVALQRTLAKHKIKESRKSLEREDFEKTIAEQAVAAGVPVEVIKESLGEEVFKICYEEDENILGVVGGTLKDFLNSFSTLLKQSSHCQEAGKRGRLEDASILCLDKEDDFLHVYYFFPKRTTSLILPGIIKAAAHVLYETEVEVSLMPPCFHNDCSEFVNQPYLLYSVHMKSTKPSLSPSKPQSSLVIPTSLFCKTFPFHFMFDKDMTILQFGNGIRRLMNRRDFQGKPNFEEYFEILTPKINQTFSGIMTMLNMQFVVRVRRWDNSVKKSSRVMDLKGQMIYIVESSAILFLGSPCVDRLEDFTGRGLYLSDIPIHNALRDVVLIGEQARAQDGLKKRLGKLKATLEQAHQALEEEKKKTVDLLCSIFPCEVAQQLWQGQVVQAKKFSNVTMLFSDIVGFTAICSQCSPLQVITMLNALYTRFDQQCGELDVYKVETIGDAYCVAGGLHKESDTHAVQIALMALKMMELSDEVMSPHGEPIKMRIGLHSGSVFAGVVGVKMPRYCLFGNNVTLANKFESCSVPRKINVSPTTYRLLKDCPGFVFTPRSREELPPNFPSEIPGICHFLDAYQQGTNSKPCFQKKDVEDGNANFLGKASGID
The test is described as follows: Measurement of sGC activation in vitro (cGMP production by purified sGC). Type of test: biochemical. To be noted: 20 min; test compound diluted to 30 μM, 10 μL/well plus equal volumes of sGC and GTP; 20 min at room temperature; cGMP without compound (1% DMSO) = 100%; read-out: cGMP amount (%) in experiment system. As to the method:
To evaluate sGC activation of each compound, the following in vitro tests were performed.
A test compound was diluted with a reaction buffer (50 mM HEPES, 5 mM MgCl2, 2 mM DTT, 0.5 mM IBMX (isobutylmethylxanthine), 0.01% BSA) to 30 μM (3% DMSO), and dispensed to a 384 well plate (manufactured by REMP) at 10 μL/well. Purified sGC was diluted with the reaction buffer to 240 ng/mL and added to the plate at 10 μL/well. Then, 120 μM GTP prepared with the reaction buffer was added to the reaction plate at 10 μL/well to initiate an enzyme reaction. After stirring at room temperature for 20 min to allow reaction, 125 mM Na2CO3 was added at 15 μL/well to quench the reaction. Thereafter, 125 mM Zn Acetate (zinc acetate) was added at 15 μL/well to allow precipitation of unreacted GTP. Then, the amount of the resulting cGMP contained in the supernatant was quantified using a CatchPoint cGMP assay kit (molecular devices). The method followed the protocol attached to the assay kit. For detection, Super Signal ELISA Femto (Thermo) was used, and the amount of luminescence was measured with ARVO (Perkinelmer). The sGC activity with addition of the compound was calculated using the amount of cGMP produced without addition of the compound (in the presence of 1% DMSO) as 100%.

In a further test the test system is male SHR. The test is described as follows: Measurement of hypotensive action in vivo in SHR. Also noted: species or system rat. To be noted: single oral administration, 5 hr after administration. As to the method: Animal used was male SHR (32- to 40-week-old, SHR/Izm, Japan SLC, Inc.). Two days before drug administration, a cannula (SP10+SP45, Natsume Seisakusho Co., Ltd.) filled with heparin physiological saline (200 U/mL, Ajinomoto Pharma Co., Ltd.) was inserted from the femoral artery under anesthesia with pentobarbital Na (50 mg/kg, i.p., Kyoritsu Seiyaku Corporation) and dwelled. The other end of the cannula was subcutaneously passed and exposed on the back of the neck where it was fixed. After a recovery period, the artery dwelling cannula was connected to a pressure transducer (DTX Plus DT-XXAD, Japan Becton Dickinson) and output on a pen recorder (linear recorder WR3320-4µL, Graphtec Corporation) via a polygraph (AP-641G, Nihon Kohden Co.), and the blood pressure waveform was recorded. The heart rate was calculated from the blood pressure waveform. After stable blood pressure was obtained, a solvent or a drug was orally administered once, and average blood pressure and average heart rate were measured over time. The blood pressure was measured under fasting, and the rats were reared under free ingestion of feed and water except the blood pressure measurement day. The drug was suspended in 0.5% methylcellulose aqueous solution. The administration dose was 2 mL/kg.

Turning to `Cc1c(C(=O)O)cnn1-c1nc(-c2ccc(Cl)c(Cl)c2)cs1` [Ref. Ex. 5, 1-[4-(3,4-dichlorophenyl)-1,3-thiazol-2-yl]-5-methyl-1H-pyrazole-4-carboxylic acid], at Purified sGC, the activity at 10 µM is above 1000%.

For the compound `Cc1c(C(=O)O)cnn1Cc1nc(-c2cccc(C(F)(F)F)c2)cs1` [Example 13, 5-methyl-1-({4-[3-(trifluoromethyl)phenyl]-1,3-thiazol-2-yl}methyl)-1H-pyrazole-4-carboxylic acid], the activity at 10 µM at Purified sGC is above 1000%.

Take `FC(F)(F)c1c(-c2nn[nH]n2)cnn1-c1nc(-c2ccc(Cl)c(Cl)c2)cs1` [Ref. Ex. 18, 5-{1-[4-(3,4-dichlorophenyl)-1,3-thiazol-2-yl]-5-(trifluoromethyl)-1H-pyrazol-4-yl}-2H-tetrazole]: the activity at 10 µM on Purified sGC was above 1000%.

Regarding `O=C(O)c1cnn(-c2nc(-c3cccc(OC(F)(F)F)c3)cs2)c1C(F)(F)F` [Ref. Ex. 10, 1-{4-[3-(trifluoromethoxy)phenyl]-1,3-thiazol-2-yl}-5-(trifluoromethyl)-1H-pyrazole-4-carboxylic acid], the activity at 10 µM on Purified sGC is above 1000%.

Turning to `O=C(O)c1cnn(-c2nc(-c3ccc(Cl)c(Cl)c3)cs2)c1C1CC1` [Ref. Ex. 4, 5-cyclopropyl-1-[4-(3,4-dichlorophenyl)-1,3-thiazol-2-yl]-1H-pyrazole-4-carboxylic acid], the activity at 10 µM at Purified sGC was above 1000%.

Turning to `CS(=O)(=O)NC(=O)c1cnn(-c2nc(-c3ccc(Cl)c(Cl)c3)cs2)c1C(F)(F)F` [Ref. Ex. 19, 1-[4-(3,4-dichlorophenyl)-1,3-thiazol-2-yl]-N-(methylsulfonyl)-5-(trifluoromethyl)-1H-pyrazole-4-carboxamide], the activity at 10 µM at Purified sGC is above 1000%.

As to `O=C(O)c1ccc(Cc2nc(-c3cccc(C(F)(F)F)c3F)cs2)cc1` [Example 186, 4-({4-[2-fluoro-3-(trifluoromethyl)phenyl]-1,3-thiazol-2-yl}methyl)benzoic acid], the activity at 10 µM on Purified sGC was above 1000%.

As for `O=C(O)c1cnn(-c2nc(-c3ccc(Cl)c(Cl)c3)cs2)c1` [Ref. Ex. 17, 1-[4-(3,4-dichlorophenyl)-1,3-thiazol-2-yl]-1H-pyrazole-4-carboxylic acid], the activity at 10 µM at Purified sGC is above 1000%.

Take `O=C(O)c1cnn(Cc2nc(-c3cccc(C(F)(F)F)c3)cs2)c1` [Example 1, 1-({4-[3-(trifluoromethyl)phenyl]-1,3-thiazol-2-yl}methyl)-1H-pyrazole-4-carboxylic acid]: at Purified sGC, the activity at 10 µM was above 1000%. Further, the “hypotension after 5 hr from the administration” value (“hypotension after 5 hr” for short) in the test on male SHR (30 mg/kg) is 15.5 mmHg.

With `FC(F)(F)c1cccc(-c2csc(Cn3cc(-c4nn[nH]n4)cn3)n2)c1` [Example 18, 5-[1-({4-[3-(trifluoromethyl)phenyl]-1,3-thiazol-2-yl}methyl)-1H-pyrazol-4-yl]-2H-tetrazole], on Purified sGC, the activity at 10 µM came to 503%.

For `O=C(O)c1cnn(Cc2ncc(-c3cccc(C(F)(F)F)c3)s2)c1` [Example 23, 1-({5-[3-(trifluoromethyl)phenyl]-1,3-thiazol-2-yl}methyl)-1H-pyrazole-4-carboxylic acid], the activity at 10 µM at Purified sGC was determined as 996%.

`Cc1sc(-c2cc(Cl)cc(C(F)(F)F)c2)nc1Cn1cc(C(=O)O)cn1` [Example 83, 1-({2-[3-chloro-5-(trifluoromethyl)phenyl]-5-methyl-1,3-thiazol-4-yl}methyl)-1H-pyrazole-4-carboxylic acid]: at Purified sGC, the activity at 10 µM was above 1000%. The “hypotension after 5 hr” value in the test on male SHR (10 mg/kg) was determined as 14.5 mmHg.

`O=C(O)c1cnn(-c2nc(-c3ccc(Cl)c(Cl)c3)cs2)c1C(F)(F)F` [Ref. Ex. 1, 1-[4-(3,4-dichlorophenyl)-1,3-thiazol-2-yl]-5-(trifluoromethyl)-1H-pyrazole-4-carboxylic acid]: the activity at 10 µM at Purified sGC was above 1000%.

`O=C(O)c1cnn(-c2nc(Cc3cccc(C(F)(F)F)c3)cs2)c1C(F)(F)F` [Ref. Ex. 25, 5-(trifluoromethyl)-1-{4-[3-(trifluoromethyl)benzyl]-1,3-thiazol-2-yl}-1H-pyrazole-4-carboxylic acid]: the activity at 10 µM on Purified sGC is above 1000%.

Take `Cc1sc(-c2cccc(C(F)(F)F)c2F)nc1Cn1cc(C(=O)O)cn1` [Example 80, 1-({2-[2-fluoro-3-(trifluoromethyl)phenyl]-5-methyl-1,3-thiazol-4-yl}methyl)-1H-pyrazole-4-carboxylic acid]: at Purified sGC, the activity at 10 µM was above 1000%. Moreover, the “hypotension after 5 hr” value in the test with male SHR (10 mg/kg) is reported as 14.7 mmHg.

On to `O=C(O)c1cnn(Cc2csc(-c3cccc(C(F)(F)F)c3)n2)c1` [Example 21, 1-({2-[3-(trifluoromethyl)phenyl]-1,3-thiazol-4-yl}methyl)-1H-pyrazole-4-carboxylic acid], for which the activity at 10 µM on Purified sGC is above 1000%.

In the case of `O=C(O)c1ccc(Cc2nc(-c3ccc(Cl)c(Cl)c3)cs2)cc1` [Example 179, 4-{[4-(3,4-dichlorophenyl)-1,3-thiazol-2-yl]methyl}benzoic acid], on Purified sGC, the activity at 10 µM was above 1000%.

`O=C(Nc1cccc(Cl)c1)c1csc(-n2ncc(C(=O)O)c2C(F)(F)F)n1` [Ref. Ex. 20, 1-{4-[(3-chlorophenyl)carbamoyl]-1,3-thiazol-2-yl}-5-(trifluoromethyl)-1H-pyrazole-4-carboxylic acid]: at Purified sGC, the activity at 10 µM was above 1000%.

For `O=C(O)c1cnn(-c2nc(-c3ccc(Cl)s3)cs2)c1C(F)(F)F` [Ref. Ex. 3, 1-[4-(5-chlorothiophen-2-yl)-1,3-thiazol-2-yl]-5-(trifluoromethyl)-1H-pyrazole-4-carboxylic acid], the activity at 10 µM at Purified sGC was above 1000%.

On to `O=C(O)c1cnn(-c2nc(COc3ccc(Cl)c(Cl)c3)cs2)c1C(F)(F)F` [Ref. Ex. 22, 1-[4-[(3,4-dichlorophenoxy)methyl]-1,3-thiazol-2-yl]-5-(trifluoromethyl)-1H-pyrazole-4-carboxylic acid], for which the activity at 10 µM on Purified sGC came out at 766%.

`O=C(O)c1cnn(-c2nc(CCc3cccc(C(F)(F)F)c3)cs2)c1C(F)(F)F` [Ref. Ex. 24, 5-(trifluoromethyl)-1-(4-{2-[3-(trifluoromethyl)phenyl]ethyl}-1,3-thiazol-2-yl)-1H-pyrazole-4-carboxylic acid]: the activity at 10 µM at Purified sGC is above 1000%.

`Cc1cc(C(=O)O)nn1Cc1nc(-c2ccc(Cl)c(Cl)c2)cs1` [Example 6, 1-{[4-(3,4-dichlorophenyl)-1,3-thiazol-2-yl]methyl}-5-methyl-1H-pyrazole-3-carboxylic acid]: the activity at 10 µM at Purified sGC is 420%.

Values taken from US8461348B2, “Heterocyclic derivative and use thereof” (Takeda Pharmaceutical Company Limited, priority 2008, dated 2013).
